Columns and labels:
HL-60 [1] = assay: Effective dose required to […] the differentiation to monocytes of HL-60 cells; format: functional; conditions: Homo sapiens, read-out: ED50 (the source's name)
[2] = target: Protein kinase C delta type (Homo sapiens, UniProt Q05655); assay: Displacement of [3H]PDBu from Protein kinase C delta
HL-60 [3] = assay: Effective dose required to […] the differentiation to monocytes of HL-60 cells; Weaker activity; format: functional; conditions: Homo sapiens, read-out: ED50 (the source's name)
HL-60 [4] = assay: Effective dose required to […] the differentiation to monocytes of HL-60 cells; Inactive; format: functional; conditions: Homo sapiens, read-out: ED50 (the source's name)

Chain of Protein kinase C delta type (Q05655 whole entry): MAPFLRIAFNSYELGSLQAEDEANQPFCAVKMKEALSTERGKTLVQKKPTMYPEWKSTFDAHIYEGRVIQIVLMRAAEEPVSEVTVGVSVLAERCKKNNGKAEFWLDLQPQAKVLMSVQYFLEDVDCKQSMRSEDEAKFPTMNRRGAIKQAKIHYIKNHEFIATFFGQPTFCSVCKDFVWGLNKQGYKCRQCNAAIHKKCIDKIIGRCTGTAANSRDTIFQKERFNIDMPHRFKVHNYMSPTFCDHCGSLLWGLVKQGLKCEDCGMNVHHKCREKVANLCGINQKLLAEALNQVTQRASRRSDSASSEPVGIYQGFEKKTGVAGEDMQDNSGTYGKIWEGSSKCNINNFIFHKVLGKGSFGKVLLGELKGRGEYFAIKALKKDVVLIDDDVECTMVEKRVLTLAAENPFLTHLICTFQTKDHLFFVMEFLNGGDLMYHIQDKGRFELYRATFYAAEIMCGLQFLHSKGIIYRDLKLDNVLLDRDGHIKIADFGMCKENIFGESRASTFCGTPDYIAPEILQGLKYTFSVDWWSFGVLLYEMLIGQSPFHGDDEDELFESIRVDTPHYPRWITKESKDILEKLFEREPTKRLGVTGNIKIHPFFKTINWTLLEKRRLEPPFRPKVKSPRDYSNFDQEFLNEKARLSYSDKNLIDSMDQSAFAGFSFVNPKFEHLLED

Row | SMILES | EC50 (HL-60 [1]) | Ki [2] | EC50 (HL-60 [3]) | EC50 (HL-60 [4])
1 | CCCCCCCCCCCCCCN1C[C@@H](CO)NC(=O)[C@@H]1C(C)C | 0.2 µM | 0.29 µM | – | –
2 | CCCCCCCCCCCCCCN1C[C@H](CO)NC(=O)[C@@H]1C(C)C | – | 2.7 µM | 1 µM | –
3 | CCCCCCCCCCCCCCN1C[C@@H](CO)NC(=O)[C@H]1C(C)C | – | 6.5 µM | – | –
4 | CCCCCCCCCCCCCCN1C[C@H](CO)NC(=O)[C@H]1C(C)C | – | 12 µM | – | > 5 µM

— ChEMBL document CHEMBL1129805, “Novel conformationally constrained analogues of diacylglycerol. Protein kinase C binding affinity of simplified compounds based on a 6-membered lactam moiety” (Bioorg Med Chem Lett, 1997)
